Active and inactive are the calls of the source. No cut-off for these calls is given here.
What was measured:
[1] = target: T1, Fibrinogen C domain-containing protein 1 (Homo sapiens) (UniProt Q8N539); test: Binding affinity to V5-His tagged FIBCD1 ecto-domain (54 to 461 residues) (unknown origin) assessed as reduction in binding between FIBCD1 and acetylated BSA at 50 mM by ELISA relative to control
T1 sequence (whole entry): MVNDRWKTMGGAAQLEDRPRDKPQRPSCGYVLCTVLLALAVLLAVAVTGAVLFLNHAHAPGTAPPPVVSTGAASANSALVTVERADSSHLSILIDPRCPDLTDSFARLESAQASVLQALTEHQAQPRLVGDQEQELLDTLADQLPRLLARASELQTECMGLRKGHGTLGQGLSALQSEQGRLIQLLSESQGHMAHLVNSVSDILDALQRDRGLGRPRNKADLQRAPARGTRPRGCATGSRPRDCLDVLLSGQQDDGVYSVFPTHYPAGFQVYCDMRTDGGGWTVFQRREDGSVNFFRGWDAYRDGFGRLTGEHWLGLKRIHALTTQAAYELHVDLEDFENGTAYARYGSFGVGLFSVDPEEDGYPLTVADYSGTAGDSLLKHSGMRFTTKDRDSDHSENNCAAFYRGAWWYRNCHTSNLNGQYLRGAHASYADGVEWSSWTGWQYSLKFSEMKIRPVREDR

[2] = target: T1, Fibrinogen C domain-containing protein 1 (Homo sapiens); test: Binding affinity to V5-His tagged FIBCD1 ecto-domain (54 to 461 residues) (unknown origin) expressed in HEK293 cells assessed as reduction in binding between FIBCD1 and acetylated BSA by ELISA; assay type: cell-based
[3] = target: T1, Fibrinogen C domain-containing protein 1 (Homo sapiens); test: Binding affinity to V5-His tagged FIBCD1 ecto-domain (54 to 461 residues) (unknown origin) assessed as reduction in binding between FIBCD1 and acetylated BSA by ELISA relative to control
[4] = target: T1, Fibrinogen C domain-containing protein 1 (Homo sapiens); test: Binding affinity to V5-His tagged FIBCD1 ecto-domain (54 to 461 residues) (unknown origin) expressed in CHO cells assessed as reduction in endocytosis of [125I]Acetylated BSA by measuring degraded acetylated BSA level measured up to 4 hrs; assay type: cell-based

Structure (SMILES)	inhibition [1] [%]	I50 [2]	Ratio [3]	Activity [4]
CCC(=O)O	< 50	inactive		
CC(=O)O			0.7	
CC(=O)OCC[N+](C)(C)C			0.2	
CCN(CC)CCCC(C)Nc1ccnc2cc(Cl)ccc12 (stereo not given)				Active
CC(=O)N[C@@H]1[C@@H](O)[C@@H](O)[C@@H](CO)O[C@@H]1O			0.4	
CCCC(=O)O	< 50	inactive		
N[C@H]1[C@H]([C@H](O)[C@H](O)CO)OC(O)(C(=O)O)C[C@@H]1O (stereo not given in full)			1	
OC[C@H]1OC(O)[C@H](O)[C@@H](O)[C@@H]1O (stereo not given in full)	< 50	inactive		
OC[C@H]1OC(O)[C@@H](O)[C@@H](O)[C@@H]1O (stereo not given in full)	< 50	inactive		
O=C[C@H](O)[C@@H](O)[C@@H](O)[C@H](O)CO	< 50	inactive		
